# Reference: patent publication US7998952B2, “Thiolactams and uses thereof” (Millennium Pharmaceuticals, Inc., priority 2008, dated 2011)
# Biological target: T1, recombinant human PLK1[2-369]T210D (Homo sapiens, UniProt P53350, T210D)
# T1 construct: recombinant human PLK1[2-369]T210D; Smt (SUMO) fusion partner (N, cleaved yes); host or cells: E. coli
# Assay: PLK1 DELFIA Kinase Assay
# Type: biochemical
# Conditions: 50 μM ATP, 2 μM peptide substrate, 0.3 nM enzyme, 90 minutes at room temperature
# Experimental: Recombinant human PLK1 was expressed in E. coli as an N-terminal Smt fusion protein using a proprietary vector (pSGX4) by Structural Genomics (SGX). The fusion partner was removed through cleavage with Ulp1 after an initial purification using a Ni2+ affinity column.
# PLK1 DELFIA® Kinase Assay
# The enzymatic reaction mixture, with or without PLK inhibitors, was incubated 90 minutes at room temperature before termination with 50 μL of STOP buffer containing 1% BSA, 0.05% Tween20, 100 mM EDTA. 50 μL of the stopped enzyme reaction mixture was transferred to a Neutravidin-coated 384-well plate (Pierce) and incubated at room temperature for 60 minutes. […] The wells were washed and then the bound europium was liberated using 50 μL of Enhancement Solution (Perkin Elmer). Quantification of europium was done using a Pherastar (BMG Labtech)
# T1 sequence (P53350 2-369 T210D): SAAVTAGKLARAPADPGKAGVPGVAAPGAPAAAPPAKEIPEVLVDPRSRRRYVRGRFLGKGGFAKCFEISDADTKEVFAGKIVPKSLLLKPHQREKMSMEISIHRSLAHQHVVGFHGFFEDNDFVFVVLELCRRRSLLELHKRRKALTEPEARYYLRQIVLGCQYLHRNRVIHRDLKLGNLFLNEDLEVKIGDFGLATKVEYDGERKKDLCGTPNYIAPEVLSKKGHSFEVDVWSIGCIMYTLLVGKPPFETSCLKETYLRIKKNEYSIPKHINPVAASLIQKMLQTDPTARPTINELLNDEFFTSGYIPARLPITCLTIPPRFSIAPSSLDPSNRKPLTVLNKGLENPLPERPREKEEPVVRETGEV
row,IC50 [nM],Compound
1,< 5,"CN(C)CCc1cncc(Nc2ncc3c(n2)-c2ccc(C(F)(F)F)cc2NC(=S)C3)c1 [Compound I-25, 2-({5-[2-(dimethylamino)ethyl]pyridin-3-yl}amino)-9-(trifluoromethyl)-5,7-dihydro-6H-pyrimido[5,4-d][1]benzazepine-6-thione]"
2,< 5,"Cc1ncc(CCN2CCN(C)CC2)cc1Nc1ncc2c(n1)-c1ccc(C(F)(F)F)cc1NC(=S)C2 [Compound I-26, 2-({2-methyl-5-[2-(4-methylpiperazin-1-yl)ethyl]pyridin-3-yl}amino)-9-(trifluoromethyl)-5,7-dihydro-6H-pyrimido[5,4-d][1]benzazepine-6-thione]"
3,< 5,"CN(C)CCCc1cnc(F)c(Nc2ncc3c(n2)-c2ccc(Cl)cc2NC(=S)C3)c1 [Compound I-27, 9-chloro-2-({5-[3-(dimethylamino)propyl]-2-fluoropyridin-3-yl}amino)-5,7-dihydro-6H-pyrimido[5,4-d][1]benzazepine-6-thione]"
4,< 5,"CN1CCN(c2ccc(Nc3ncc4c(n3)-c3ccc(Cl)cc3NC(=S)C4)cn2)CC1 [Compound I-28, 9-chloro-2-{[6-(4-methylpiperazin-1-yl)pyridin-3-yl]amino}-5,7-dihydro-6H-pyrimido[5,4-d][1]benzazepine-6-thione]"
5,< 5,"Cc1nc(N2CCC(N(C)C)CC2)ccc1Nc1ncc2c(n1)-c1ccc(C(F)(F)F)cc1NC(=S)C2 [Compound I-29, 2-({6-[4-(dimethylamino)piperidin-1-yl]-2-methylpyridin-3-yl}amino)-9-(trifluoromethyl)-5,7-dihydro-6H-pyrimido[5,4-d][1]benzazepine-6-thione]"
6,> 25,"Cc1ncc(CCNC2CCCC2)cc1Nc1ncc2c(n1)-c1ccc(Cl)cc1NC(=S)C2 [Compound I-30, 9-chloro-2-({5-[2-(cyclopentylamino)ethyl]-2-methylpyridin-3-yl}amino)-5,7-dihydro-6H-pyrimido[5,4-d][1]benzazepine-6-thione]"
7,< 5,"Cc1ncc(CCN2C[C@@H](C)O[C@@H](C)C2)cc1Nc1ncc2c(n1)-c1ccc(Cl)cc1NC(=S)C2 [Compound I-31, 9-chloro-2-[(5-{2-[(2R,6S)-2,6-dimethylmorpholin-4-yl]ethyl}-2-methylpyridin-3-yl)amino]-5,7-dihydro-6H-pyrimido[5,4-d][1]benzazepine-6-thione]"
8,< 5,"CN(C)CCCc1cncc(Nc2ncc3c(n2)-c2ccc(C(F)(F)F)cc2NC(=S)C3)c1 [Compound I-32, 2-({5-[3-(dimethylamino)propyl]pyridin-3-yl}amino)-9-(trifluoromethyl)-5,7-dihydro-6H-pyrimido[5,4-d][1]benzazepine-6-thione]"
9,5 to 25,"CN(C)CCCc1cc2c(cc1Cl)NC(=S)Cc1cnc(Nc3cccnc3)nc1-2 [Compound I-33, 9-chloro-10-[3-(dimethylamino)propyl]-2-(pyridin-3-ylamino)-5,7-dihydro-6H-pyrimido[5,4-d][1]benzazepine-6-thione]"
10,< 5,"Cc1ncc(CCN2CCCC(N(C)C)C2)cc1Nc1ncc2c(n1)-c1ccc(Cl)cc1NC(=S)C2 (stereo not shown) [Compound I-34, 9-chloro-2-[(5-{2-[3-(dimethylamino)piperidin-1-yl]ethyl}-2-methylpyridin-3-yl)amino]-5,7-dihydro-6H-pyrimido[5,4-d][1]benzazepine-6-thione]"
11,5 to 25,"Cc1nc(N(C)CCN(C)C)ccc1Nc1ncc2c(n1)-c1ccc(C(F)(F)F)cc1NC(=S)C2 [Compound I-35, 2-({6-[[2-(dimethylamino)ethyl](methyl)amino]-2-methylpyridin-3-yl}amino)-9-(trifluoromethyl)-5,7-dihydro-6H-pyrimido[5,4-d][1]benzazepine-6-thione]"
12,5 to 25,"CN(C)CCCc1cnc(C(F)(F)F)c(Nc2ncc3c(n2)-c2ccc(C(F)(F)F)cc2NC(=S)C3)c1 [Compound I-36, 2-{[5-[3-(dimethylamino)propyl]-2-(trifluoromethyl)pyridin-3-yl]amino}-9-(trifluoromethyl)-5,7-dihydro-6H-pyrimido[5,4-d][1]benzazepine-6-thione]"
13,> 25,"Cc1ccnc(C)c1Nc1ncc2c(n1)-c1ccc(Cl)cc1NC(=S)C2 [Compound I-37, 9-chloro-2-[(2,4-dimethylpyridin-3-yl)amino]-5,7-dihydro-6H-pyrimido[5,4-d][1]benzazepine-6-thione]"
14,< 5,"CCc1ncc(CCCN(C)C)cc1Nc1ncc2c(n1)-c1ccc(Cl)cc1NC(=S)C2 [Compound I-38, 9-chloro-2-({5-[3-(dimethylamino)propyl]-2-ethylpyridin-3-yl}amino)-5,7-dihydro-6H-pyrimido[5,4-d][1]benzazepine-6-thione]"
15,< 5,"Cc1ncc(CCCN(C)C)cc1Nc1ncc2c(n1)-c1ccc(C3CC3)cc1NC(=S)C2 [Compound I-39, 9-cyclopropyl-2-({5-[3-(dimethylamino)propyl]-2-methylpyridin-3-yl}amino)-5,7-dihydro-6H-pyrimido[5,4-d][1]benzazepine-6-thione]"
16,< 5,"Cc1nc(NCC2CCN(C)CC2)ccc1Nc1ncc2c(n1)-c1ccc(Cl)cc1NC(=S)C2 [Compound I-40, 9-chloro-2-[(2-methyl-6-{[(1-methylpiperidin-4-yl)methyl]amino}pyridin-3-yl)amino]-5,7-dihydro-6H-pyrimido[5,4-d][1]benzazepine-6-thione]"
17,5 to 25,"Cc1nc(N(C)CCCN(C)C)ccc1Nc1ncc2c(n1)-c1ccc(Cl)cc1NC(=S)C2 [Compound I-41, 9-chloro-2-({6-[[3-(dimethylamino)propyl](methyl)amino]-2-methylpyridin-3-yl}amino)-5,7-dihydro-6H-pyrimido[5,4-d][1]benzazepine-6-thione]"
18,< 5,"Cc1nc(C)c(Nc2ncc3c(n2)-c2ccc(Cl)cc2NC(=S)C3)cc1CCCN(C)C [Compound I-42, 9-chloro-2-({5-[3-(dimethylamino)propyl]-2,6-dimethylpyridin-3-yl}amino)-5,7-dihydro-6H-pyrimido[5,4-d][1]benzazepine-6-thione]"
19,< 5,"Cc1ncc(CCN2CCOCC2)cc1Nc1ncc2c(n1)-c1ccc(C(F)(F)F)cc1NC(=S)C2 [Compound I-43, 2-{[2-methyl-5-(2-morpholin-4-ylethyl)pyridin-3-yl]amino}-9-(trifluoromethyl)-5,7-dihydro-6H-pyrimido[5,4-d][1]benzazepine-6-thione]"
20,5 to 25,"Cc1nc(CC2CCN(C)CC2)ccc1Nc1ncc2c(n1)-c1ccc(Cl)cc1NC(=S)C2 [Compound I-44, 9-chloro-2-({2-methyl-6-[(1-methylpiperidin-4-yl)methyl]pyridin-3-yl}amino)-5,7-dihydro-6H-pyrimido[5,4-d][1]benzazepine-6-thione]"
21,< 5,"Cc1ncc(CCN2CCCC2)cc1Nc1ncc2c(n1)-c1ccc(Cl)cc1NC(=S)C2 [Compound I-45, 9-chloro-2-{[2-methyl-5-(2-pyrrolidin-1-ylethyl)pyridin-3-yl]amino}-5,7-dihydro-6H-pyrimido[5,4-d][1]benzazepine-6-thione]"
22,< 5,"Cc1ncc(N2CCN(C)CC2)cc1Nc1ncc2c(n1)-c1ccc(C(F)(F)F)cc1NC(=S)C2 [Compound I-46, 2-{[2-methyl-5-(4-methylpiperazin-1-yl)pyridin-3-yl]amino}-9-(trifluoromethyl)-5,7-dihydro-6H-pyrimido[5,4-d][1]benzazepine-6-thione]"
23,< 5,"S=C1Cc2cnc(Nc3ccc(N4CCCC4)nc3)nc2-c2ccc(Cl)cc2N1 [Compound I-47, 9-chloro-2-[(6-pyrrolidin-1-ylpyridin-3-yl)amino]-5,7-dihydro-6H-pyrimido[5,4-d][1]benzazepine-6-thione]"
24,< 5,"CCN1[C@H](C)CN(c2cnc(C)c(Nc3ncc4c(n3)-c3ccc(Cl)cc3NC(=S)C4)c2)C[C@@H]1C [Compound I-49, 9-chloro-2-({5-[(3R,5S)-4-ethyl-3,5-dimethylpiperazin-1-yl]-2-methylpyridin-3-yl}amino)-5,7-dihydro-6H-pyrimido[5,4-d][1]benzazepine-6-thione]"
25,< 5,"Cc1ncc(CCN(C)C)cc1Nc1ncc2c(n1)-c1ccc(C(F)(F)F)cc1NC(=S)C2 [Compound I-50, 2-({5-[2-(dimethylamino)ethyl]-2-methylpyridin-3-yl}amino)-9-(trifluoromethyl)-5,7-dihydro-6H-pyrimido[5,4-d][1]benzazepine-6-thione]"
26,< 5,"CN1CCN(CCc2cncc(Nc3ncc4c(n3)-c3ccc(Cl)cc3NC(=S)C4)c2)CC1 [Compound I-51, 9-chloro-2-({5-[2-(4-methylpiperazin-1-yl)ethyl]pyridin-3-yl}amino)-5,7-dihydro-6H-pyrimido[5,4-d][1]benzazepine-6-thione]"
27,< 5,"Cc1ncc(CCN2CCC(N(C)C)CC2)cc1Nc1ncc2c(n1)-c1ccc(C(F)(F)F)cc1NC(=S)C2 [Compound I-52, 2-[(5-{2-[4-(dimethylamino)piperidin-1-yl]ethyl}-2-methylpyridin-3-yl)amino]-9-(trifluoromethyl)-5,7-dihydro-6H-pyrimido[5,4-d][1]benzazepine-6-thione]"
28,< 5,"Cc1ncc(CCN2CCCCC2)cc1Nc1ncc2c(n1)-c1ccc(Cl)cc1NC(=S)C2 [Compound I-54, 9-chloro-2-{[2-methyl-5-(2-piperidin-1-ylethyl)pyridin-3-yl]amino}-5,7-dihydro-6H-pyrimido[5,4-d][1]benzazepine-6-thione]"
